From patent US5114972A, “Synthesis and uses of new ascorbic acid derivatives which have anti-oxidant and anti-cancer activities” (priority 1990, dated 1992)

Key:
[1] = test system: Ehrlich's ascites tumor (EAT); test: Anti-cancer activity, Ehrlich's ascites tumor (EAT) model; assay type: in vivo, mice; conditions: 5-FU 20 mg/kg/day
Experimental: (§1) We used two mice models (Tomomatsu, Morita, Nagai, Shiwaku, Ichiki and Yonoki: Acta Med. Univ. Kagoshima. 17:99, 1975), i.e., (a) Ehrlich's ascites tumor (EAT) model and (b) a solid tumor model in which EAT cells were innoculated subcutaneously. In (a), 10^7 tumor cells were injected I.P. in a mouse with the body weight of 20 g. In (b), the same amount of tumor cells were injected subcutaneously in a mouse of similar weight. After 21 days, we measured several parameters: (i) the change of body weight; (ii) average time to their death, from which we measure extension of life span, and (iii) survival rate.
In the ascites tumor model, an increase of body weight is related to the increase in ascites. When the animal dies, we collect the ascites fluid and measure the number of tumor cells found in the ascites.
(§2) In the solid tumor model, we measured the extension of the life span and the survival rate. […] In the Experiment 1, from day 4 until day 13 (for ten days), anti-cancer drugs were administered. […] In the combination therapy, both drugs were administered simultaneously at their respective doses. […] With the 5-FU, they died in an average of 20.3 days. […] In the tumor model, similar tendency was observed.
(§3) In the Experiment 2, the amount of the oligomer was cut down to 1 mg/kg/day to see whether we could still observe anti-cancer activity.

[2] = test system: solid tumor (EAT cells); test: Anti-cancer activity, solid tumor model (EAT cells inoculated subcutaneously); assay type: in vivo, mice; conditions: 5-FU 20 mg/kg/day
Experimental: as §1, §2, §3

[3] = test system: mice; test: Reduction of toxic side-effect of 5-FU by OC-5186 (Experiment 2); assay type: in vivo
Experimental: as §3

[4] = test system: sickle red blood cells; test: Formation of irreversibly sickled cells upon sickling-unsickling cycling in vitro; assay type: cell-based; conditions: 10 ug/ml
Source text: The inventor previously developed the method to produce irreversibly sickled cells (ISC, which are irreversibly denatured sickle cells) by exposing sickle red blood cells to a repeated sickling-unsickling cycling in vitro. He used this system to determine the efficacy of drugs in protecting cell membranes (Ohnishi, Br. J. Haematol. 55:665-671, 1983; Ohnishi et al. Biochim. Biophys. Acta 886:119-129, 1986). […] These heavy cells were collected, the amount measured, and the percentage of production calculated.

[5] = test system: FCR-3 strain P. falciparum; test: Growth inhibition of P. falciparum in in vitro culture; assay type: cell-based; conditions: 50 ug/ml, forty-eight hours
Experimental: The FCR-3 strain P. falciparum was used. Blood-stage parasites were cultured in RPMI-1640 (GIBCO Laboratories, Chagrin Falls, Ohio) in 96 well flat bottomed plates (Costar; Cambridge, Mass.) using the candle jar method described by Jensen and Trager (J. Parasitology 63:883,1977) and modified by Grun and Weidanz (J. Parasitology 73:384, 1987). Parasitemia was estimated on GIEMSA stained films of cultures. For drug administration, desired amounts of chemicals were added to an individual wells of 96 well plates. Forty-eight hours later, parasitemia was estimated and the degree of growth inhibition was determined.

[6] = test system: brain ischemia; test: Survival rate after global brain ischemia; assay type: in vivo, Sprague-Dawley rats; conditions: 9 mg/kg; OC-5186 injected I.P. thirty minutes prior to ischemia; control 8 out of 8 died within 2 days
Experimental: Adult, male Sprague-Dawley rats, weighing 300 to 350 grams, were used to prepare global ischemia. Anesthesia was induced and maintained with forane in 70% nitrous oxide-30% oxygen. After trachea was intubated, anesthesia was maintained using a ventilator. Both common carotid arteries were exposed and occluded by microaneurysmal clips. Then 12 to 14 ml of blood was withdrawn from the tail vein to bring the blood pressure to 30 mm Hg, which caused global ischemia. After twenty minutes of ischemia, blood was reinfused, clips were removed to induce recirculation. After twenty minutes of recirculation, the rat was decapitated, the brain was removed in ice-cold saline and then homogenized for TBAR measurement and spin trap measurement. For the measurement of survival rate, the wound was sutured and the animal recovered. The animal was returned to its cage. They were then observed for the survival rate. […] In this experiment, the brain was homogenized in the presence of 50 mM tert-butyl-(alpha)-phenylnitrone and the homogenate was introduced to electron spin resonance spectrophotometer.
In control experiment, where no drug was introduced, 8 out of 8 animals died within 2 days. […] Ascorbic acid (9 mg/kg) had no effect.

[7] = test system: lipid peroxidation (TBAR) in rat head/brain homogenate; test: Inhibition of TBAR production (lipid peroxidation) in ischemic rat brain homogenate, drug added in vitro; assay type: biochemical; conditions: added in vitro before exposure to air (FIG. 3, FIG. 4)
Source text: (A) When cell membranes are exposed to ischemic or hypoxic insult, lipid peroxidation takes place. The degree of peroxidation can be measured by the production of thiobarbiturate reactive substances (TBAR). We have developed a simple assay method; we decapitate the rat and keep the head under a hypoxic condition for thirty minutes at 37 degrees and then homogenize it, then expose the homogenate to air for sixty minutes and measure the production of TBAR.

[8] = Superoxide scavenging activity, adenochrome method; assay type: biochemical; conditions: 50 ug/ml each; absorbance at 480 nm (FIG. 1)
Source text: From the change of the slope, we can estimate the activity of scavenging action.

[9] = Anti-oxidant activity and protection from ischemic trauma (summary statement)

For `O=c1[nH]cc(F)c(=O)[nH]1` [5-FU, 5-fluorouracil], the “21 day survival, EAT model” value ([1]; Experiment 1, day 4 to day 13, OC-5186 10 mg/kg/day, combination at respective doses, control 25%) was 40%, the “Average survival, EAT model” value ([1]; Experiment 1, day 4 to day 13, OC-5186 10 mg/kg/day, combination at respective doses, control 17.0 days) was 20.3 days and the “21 day survival, EAT model” value ([1]; Experiment 2, 23 days, OC-5186 1 mg/kg/day, combination, control 0%) was 40%. For the same compound, the “Average survival, EAT model” value ([1]; Experiment 2, 23 days, OC-5186 1 mg/kg/day, combination, control 15.3 days) was 20.3 days, the “Solid tumor weight (on 21 days)” value ([2]; Experiment 1, day 4 to day 13, OC-5186 10 mg/kg/day, combination at respective doses, control 1.2 g) was 0.70 g and the “21 day surv., solid tumor model” value ([2]; Experiment 2, 23 days, OC-5186 1 mg/kg/day, combination, control 25%) was 40%. For the same compound, the “Av. Surv., solid tumor model” value ([2]; Experiment 2, 23 days, OC-5186 1 mg/kg/day, combination, control 23.2 days) was 26 days, the “survival of chemotherapy / toxicity” value ([3]; administered for 23 days) was “all animals die if it is administered for 23 days” and the “tolerated duration of 5-FU administration without OC-5186” value ([3]; without OC-5186) was no more than 10 days.
For `O=C1O[C@H]([C@@H](O)CO)C(O)=C1O` [Ascorbic acid], the “inhibition of formation of irreversibly denatured cells (in words)” value [4] was “did not inhibit the formation”, the “inhibition of growth of P. falciparum (in words)” value [5] was “did not inhibit the growth” and the survival after ischemia [6] was “had no effect”.
For `CCCCC[C@H](O)/C=C/C1=C(C/C=C\CCCC(=O)OC[C@H](O)[C@H]2OC(=O)C(O)=C2O)C(=O)CC1` [OC-5181], the “inhibition of TBAR production / antioxidant activity in vitro” value [7] was “antioxidant activity comparable to free acid type prostaglandin oligomers, OC-2186”, the “superoxide-induced adenochrome formation (slope of the curve)” value [8] was “the slope of the curve decreased” and the anti-oxidant activity [9] was “strong anti-oxidant activity”.
